In BindingDB's records for doi:10.1016/s0960-894x(01)00209-8 (Institut Für Biochemie Der Technischen …, 2001):

Biological target: Beta-glucosidase (Agrobacterium sp.) (UniProt P12614)
Assay: Inhibitory activity against Agrobacterium sp. Beta-glucosidase employing fluorescence spectrometric method

Sequence of Beta-glucosidase (Agrobacterium sp.) (P12614 whole entry, looked up): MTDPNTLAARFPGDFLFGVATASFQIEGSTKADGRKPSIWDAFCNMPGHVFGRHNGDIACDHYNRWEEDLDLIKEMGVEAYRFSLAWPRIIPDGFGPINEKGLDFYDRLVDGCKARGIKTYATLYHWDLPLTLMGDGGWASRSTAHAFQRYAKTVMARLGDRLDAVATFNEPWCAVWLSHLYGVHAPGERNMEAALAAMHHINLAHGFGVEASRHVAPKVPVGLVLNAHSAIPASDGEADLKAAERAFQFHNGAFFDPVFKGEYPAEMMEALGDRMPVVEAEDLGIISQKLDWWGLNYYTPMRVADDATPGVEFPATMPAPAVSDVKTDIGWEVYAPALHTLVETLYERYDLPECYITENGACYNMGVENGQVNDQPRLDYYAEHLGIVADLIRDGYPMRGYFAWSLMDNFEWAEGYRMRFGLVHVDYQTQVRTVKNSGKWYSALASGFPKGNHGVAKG

SMILES | Ki [nM]
CN(C)c1cccc2c(S(=O)(=O)NC[C@H]3N[C@H](CO)[C@H](O)[C@@H]3O)cccc12 [5-Dimethylamino-naphthalene-1-sulfonic acid ((3S,4S,5R)-3,4-dihydroxy-5-hydroxymethyl-pyrrolidin-2-ylmethyl)-amide] | 2.4
CN(C)c1cccc2c(S(=O)(=O)NCCCCCC(=O)NC[C@H]3N[C@H](CO)[C@H](O)[C@@H]3O)cccc12 [6-(5-Dimethylamino-naphthalene-1-sulfonylamino)-hexanoic acid ((3S,4S,5R)-3,4-dihydroxy-5-hydroxymethyl-pyrrolidin-2-ylmethyl)-amide] | 2.1
